# Results: patent US20250345309A1, “IMMUNE HEALTH IMPROVERS” (Amazentis SA, priority 2024, published 2025)
# Assays:
# PBMCs [1] = experiment: SCENITH mitochondrial dependency analysis of immune populations; format: in vivo, human; settings: d28, 1000 mg/day oral
# Method: Single cell energetic metabolism by profiling translation inhibition (SCENITH) was used to determine metabolic dependencies of select immune populations, which was performed as described previously (R. J. Argüello et al. Cell metabolism […], 32, 1063-1075). SCENITH reagents kit (inhibitors, puromycin and antibodies) were obtained from www.scenith.com/try-it and used according to the provided protocol. In short, 0.3×10^6 PBMCs were treated for 15 min with Control (DMSO), 2-Deoxy-Glucose (2-DG; 100 mM), Oligomycin (O; 1 μM) and the combination of 2DG and Oligomycin (DGO) or Harringtonine (H; 2 μg/mL). Following metabolic inhibitors, Puromycin (final concentration 10 μg/mL) was added to cultures for 30 min. After puromycin treatment, cells were washed in PBMC was buffer and stained with the following antibodies for 15 min at 4° C.: PE-Cy7 CD4, APC Cy7 CD8, CD45RA AF700, vFkour 450 CD3, CCR7 APC, BV786 CD14 PercP5.5 CD19, PE-CF594 CD16; CD56 BV711, BV510 Viability dye.
# Cells were fixed and permeabilized using the Foxp3 intracellular staining kit (Invitrogen eBioscience) for 1 h. Intracellular staining of puromycin and protein targets was performed for 1 h in diluted (10×) permeabilization buffer at 4° C. Finally, data acquisition was performed using the Cytek Aurora flow cytometer. Samples were unmixed using reference controls generated in combination with stained Ultracomp beads (Fisher Scientific, 01-2222-41) using the SpectroFlo Software. The unmixed FCS files were used for data processing and analysis using FlowJo (BD, version 10.8.1). Immune cell populations of interest were gated manually for downstream analysis. gMFI expression values for Puromycin were exported from FlowJo to calculate metabolic dependencies. The following calculations were used:
# To further characterize the metabolic profile of immune cells on a single-cell resolution, we employed SCENITH, a flow-cytometry based strategy that uses incorporation of Puromycin to infer metabolic dependencies (see Argüello et al., SCENITH: A flow cytometry-based method to functionally profile energy metabolism with single cell resolution, 2020, Cell Metabolism, 32, 1063-1075).
# PBMCs [2] = experiment: Spectral flow cytometry immune phenotyping of PBMCs; format: in vivo, human
# Method: Spectral flow cytometry to broadly analyse immune composition was performed on PBMCs from 25 UA and 25 placebo individuals from the cohort. Flow cytometry staining was performed in three batches, to minimize batch-related effects.
# PBMC were thawed and allowed to recover for 3 hours in uncoated cell culture dishes. All samples for any particular donor series were thawed together. For the intracellular panel, cells were stained after recovery with the surface panel, then fixed and permeabilized using the ThermoFisher Foxp3 fix/perm system, followed by staining for intracellular markers. For the surface-only panel, cells were treated with Bafilomycin A1 (0.5 μM) for 45 minutes, followed by 45 minutes incubation with 5-dodecanoylaminofluorescein di-β-D-galactopyranoside (C12FDG) before harvest and surface staining. All cells were analyzed on a Cytek Aurora cytometer. FCS files were exported into FlowJo (BD) for further analysis.
# Raw data for all 64 output channels were unmixed using library single-color reference controls for each marker. Spectral compensation for the resulting unmixed data was corrected by manually adjusting a 31×31 matrix of spectral overlaps. Once the data was properly compensated, each individual marker was checked for signal and specificity. The resulting data was then manually gated using a representative sample. The gates are then applied to the other samples in the batch, while spot-checking the gating of the other samples for consistency with the first sample gated.
# TSCM = settings: in vitro (Denk et al. Immunity 2022); cited from earlier work
# [3] = 28 days, 1000 mg/day oral, vs placebo
# [4] = d28, 1000 mg/day oral, between the two groups
# [5] = d28, 1000 mg/day oral, not present after placebo
smiles,measurement,setting,value
O=c1oc2cc(O)ccc2c2ccc(O)cc12 [Urolithin A],Capacity to shift to OXPHOS when deprived of glycolysis,PBMCs [1]; CD8+ cells,stronger capacity
same,Dependence on glucose metabolism,PBMCs [1]; CD8+ cells,less dependence
same,"Mitochondrial capacity in CD8+ subsets TN, TEM, TCM, TEEF",PBMCs [1],potentiation
same,Mitochondrial capacity in total CD8+ cells,PBMCs [1],potentiates
same,CD8+ TEMRA,"PBMCs [2]; 28 days, 1000 mg/day oral",remained unaffected
same,CD8+ central memory cells (TCM),"PBMCs [2]; 28 days, 1000 mg/day oral",remained unaffected
same,CD8+ virtual memory cells (TVM),"PBMCs [2]; 28 days, 1000 mg/day oral",remained unaffected
same,CD8+ TSCM,"PBMCs [2]; 28 days, 1000 mg/day oral, UA vs placebo group",no differences
same,Proportion of naïve CD8+ T cells (TN) among total PBMCs,"PBMCs [2]; 28 days, 1000 mg/day oral, compared to placebo",increased
same,CD8+ effector memory cells (TEM),PBMCs [2]; [3],concomitantly reduced
same,Percentage of CD4+ T cells among total PBMCs,PBMCs [2]; [3],no differences
same,Percentage of CD8+ T cells among total PBMCs,PBMCs [2]; [3],no differences
same,Percentage of circulating γδ T cells among total PBMCs,PBMCs [2]; [3],no differences
same,Percentage of total αβCD3+ T cells among total PBMCs,PBMCs [2]; [3],no differences
same,Nonclassical monocytes (CD14loCD16hi) among total PBMCs,"PBMCs [2]; after 28 days, 1000 mg/day oral, compared to placebo",increased
same,Ki67 in CD8+ cells,"PBMCs [2]; after last study visit (d28), 1000 mg/day oral, not present after placebo",more
same,CD4+ TCM population,"PBMCs [2]; d28, 1000 mg/day oral",no difference
same,CD4+ TEM population,"PBMCs [2]; d28, 1000 mg/day oral",no difference
same,CD4+ TN population,"PBMCs [2]; d28, 1000 mg/day oral",no difference
same,CD4+ TSCM population,"PBMCs [2]; d28, 1000 mg/day oral",no difference
same,CD4+ Th1 cells (T-bet),"PBMCs [2]; d28, 1000 mg/day oral",no changes
same,CD56dimCD16bright NK cells among total PBMCs,"PBMCs [2]; d28, 1000 mg/day oral",markedly expanded
same,Circulating DCs,"PBMCs [2]; d28, 1000 mg/day oral",did not change
same,Circulating ILCs,"PBMCs [2]; d28, 1000 mg/day oral",did not change
same,"Circulating T follicular helper cells (Tfh1, Bcl-6)","PBMCs [2]; d28, 1000 mg/day oral",no changes
same,FoxP3+ Treg,"PBMCs [2]; d28, 1000 mg/day oral",no changes
same,Gata3+ Th2 cells,"PBMCs [2]; d28, 1000 mg/day oral",no changes
same,NK cell inhibitory receptor KIR expression,"PBMCs [2]; d28, 1000 mg/day oral",No change
same,NK cell inhibitory receptor KLRG1 expression,"PBMCs [2]; d28, 1000 mg/day oral",No change
same,NK cell inhibitory receptor NKG2A expression,"PBMCs [2]; d28, 1000 mg/day oral",No change
same,PD-1 expression in CD8+ cells,"PBMCs [2]; d28, 1000 mg/day oral",unaltered
same,Senescence marker p16,"PBMCs [2]; d28, 1000 mg/day oral",no difference
same,Senescence marker p21,"PBMCs [2]; d28, 1000 mg/day oral",no difference
same,Classical monocytes,PBMCs [2]; [4],did not undergo change
same,Intermediate monocytes (CD14hiCD16hi),PBMCs [2]; [4],did not undergo change
same,Percentage of plasma cells among PBMCs,PBMCs [2]; [4],no changes
same,Percentage of plasmablasts among PBMCs,PBMCs [2]; [4],no changes
same,Percentage of total B cells among PBMCs,PBMCs [2]; [4],no changes
same,Specific B cell subsets,PBMCs [2]; [4],no changes
same,Senescence-associated β-galactosidase (SA-β-GAL) in circulating CD8+ cells,PBMCs [2]; [5],increased
same,TOX expression in CD8+ cells,PBMCs [2]; [5],small reduction
same,HLA-DR on classical monocytes,"PBMCs [2]; final study visit (d28), 1000 mg/day oral",less
same,TSCM formation,TSCM,induces TSCM formation
